Legend:
Assay type in all cases: in vivo
[1] = system: Amaranthus retroflexus L. (AMARE); assay: Postemergence foliar-applied, cereal crops, greenhouse: visual weed control; details: 21 DAA
Experimental: (§1) Seeds of the desired test plant species were planted in Sun Gro MetroMix® 306 planting mixture, which typically has a pH of 6.0 to 6.8 and an organic matter content of about 30 percent, in plastic pots with a surface area of 103.2 square centimeters (cm^2). When required to ensure good germination and healthy plants, a fungicide treatment and/or other chemical or physical treatment was applied. The plants were grown for 7-36 days in a greenhouse with an approximate 14 hour photoperiod which was maintained at about 18° C. during the day and about 17° C. during the night. Nutrients and water were added on a regular basis and supplemental lighting was provided with overhead metal halide 1000-Watt lamps as necessary. The plants were employed for testing when they reached the second or third true leaf stage.
(§2) Treatments consisted of the benzyl ester of 4-amino-3-chloro-5-fluoro-6-(4-chloro-2-fluoro-3-methoxy-phenyl)pyridine-2-carboxylic acid (Compound A), formulated as an SC, a second cereal herbicide alone and then both in combination.
(§3) Other herbicidal components were applied on an active ingredient basis and included microtubule-inhibiting herbicides.
(§4) Measured aliquots of benzyl ester of 4-amino-3-chloro-5-fluoro-6-(4-chloro-2-fluoro-3-methoxy-phenyl)pyridine-2-carboxylic acid (Compound A) were placed in 25 milliliter (mL) glass vials and diluted in a volume of 1.25% (v/v) Agri-Dex® crop oil concentrate to obtain stock solutions. Compound requirements are based upon a 12 mL application volume at a rate of 187 liters per hectare (L/ha). Spray solutions of the second cereal herbicide and experimental compound mixtures were prepared by adding the stock solutions to the appropriate amount of dilution solution to form 12 mL spray solution with active ingredients in two- and three-way combinations. Formulated compounds were applied to the plant material with an overhead Mandel track sprayer equipped with an 8002E nozzle calibrated to deliver 187 L/ha over an application area of 0.503 square meters (m^2) at a spray height of 18 inches (46 cm) above average plant canopy. Control plants were sprayed in the same manner with the solvent blank.
(§5) The treated plants and control plants were placed in a greenhouse as described above and watered by sub-irrigation to prevent wash-off of the test compounds. After 20-22 days, the condition of the test plants as compared with that of the control plants was determined visually and scored on a scale of 0 to 100 percent where 0 corresponds to no injury and 100 corresponds to complete kill.
(§6) Colby's equation was used to determine the herbicidal effects expected from the mixtures (Colby, S. R. 1967. Calculation of the synergistic and antagonistic response of herbicide combinations. Weeds 15:20-22.).
(§7) The following equation was used to calculate the expected activity of mixtures containing two active ingredients, A and B: Expected=A+B−(A×B/100)

[2] = system: Chenopodium album L. (CHEAL); assay: as above; details: 21 DAA
Experimental: as §1, §2, §3, §4, §5, §6, §7

[3] = system: Cirsium arvense (L.) Scop. (CIRAR); assay: as above; details: 21 DAA
Experimental: as §1, §2, §3, §4, §5, §6, §7

[4] = system: Kochia scoparia (L.) Schrad. (KCHSC); assay: as above; details: 21 DAA
Experimental: as §1, §2, §3, §4, §5, §6, §7

[5] = system: Lamium purpureum L. (LAMPU); assay: as above; details: 21 DAA
Experimental: as §1, §2, §3, §4, §5, §6, §7

[6] = system: Papaver rhoeas L. (PAPRH); assay: as above; details: 21 DAA
Experimental: as §1, §2, §3, §4, §5, §6, §7

[7] = system: Sinapis arvensis L. (SINAR); assay: as above; details: 21 DAA
Experimental: as §1, §2, §3, §4, §5, §6, §7

[8] = system: Ipomoea hederacea (L.) Jacq. (IPOHE); assay: Pre-emergence soil-applied, greenhouse: visual weed control; details: for Visual Weed Control (%) - 33 DAA IPOHE Obs: soil-applied pre-emergence
Description: Seeds or nutlets of the desired test plant species were planted in a soil matrix prepared by mixing a loam soil (e.g., 32 percent silt, 23 percent clay, and 45 percent sand, with a pH of about 6.5 and an organic matter content of about 1.9 percent) and calcareous grit in an 80 to 20 ratio. The soil matrix was contained in plastic pots with a volume of 1 quart and a surface area of 83.6 square centimeters (cm^2).
Forms of compound A were applied on an acid equivalent basis.
For treatments comprised of formulated compounds, measured amounts of compounds were placed individually in 25 mL glass vials and diluted in a volume of 1.25% (v/v) Agri-Dex® crop oil concentrate (COC) to obtain 12× stock solutions. […] Application solutions were prepared by adding an appropriate amount of each stock solution (e.g., 1 mL) and diluted to the appropriate final concentrations with the addition of 10 mL of an aqueous mixture of 1.25% (v/v) COC so that the final spray solutions contained 1.25% (v/v) COC.
For treatments comprised of formulated and technical compounds, weighed amounts of the technical materials were placed individually in 25 mL glass vials and dissolved in a volume of 97:3 (v/v) acetone/DMSO to obtain 12× stock solutions, and measured amounts of the formulated compounds were placed individually in 25 mL glass vials and diluted in a volume of 1.5% (v/v) COC or water to obtain 12× stock solutions. […] Application solutions were prepared by adding an appropriate amount of each stock solution (e.g., 1 mL) and diluted to the appropriate final concentrations with the addition of an appropriate amount of an aqueous mixture of 1.5% (v/v) COC so that the final spray solutions contained 1.25% (v/v) COC. As required, additional water and/or 97:3 (v/v) acetone/DMSO was added to individual application solutions so that the final acetone and DMSO concentrations of the application solutions being compared were 8.1% and 0.25%, respectively.
All stock solutions and applications solutions were visually inspected for compound compatibility prior to application. Spray solutions were applied to the soil with an overhead Mandel track sprayer equipped with a 8002E nozzles calibrated to deliver 187 L/ha over an application area of 0.503 m^2 at a spray height of 18 inches (46 cm) above average pot height. Control pots were sprayed in the same manner with the solvent blank.
The treated and control pots were placed in a greenhouse and top watered as needed. […] The pots were maintained in a greenhouse with an approximate 14 hr photoperiod which was maintained at about 29° C. during the day and 26° C. during the night. Nutrients (Peters® Excel 15-5-15 5-Ca 2-Mg) were applied in the irrigation solution as needed and water was added on a regular basis. Supplemental lighting was provided with overhead metal halide 1000-Watt lamps as necessary. After approximately 4 weeks, the condition of the test plants as compared with that of the untreated plants was determined visually and scored on a scale of 0 to 100 percent where 0 corresponds to no injury or growth inhibition and 100 corresponds to complete kill.
as §6, §7

For `COc1c(Cl)ccc(-c2nc(C(=O)OCc3ccccc3)c(Cl)c(N)c2F)c1F` [Compound A Benzyl Ester, benzyl ester of 4-amino-3-chloro-5-fluoro-6-(4-chloro-2-fluoro-3-methoxy-phenyl)pyridine-2-carboxylic acid], the “Visual Weed Control (%) Obs” value ([1]; 2.5 g ai/ha) was 20%, the “Visual Weed Control (%) Obs” value ([1]; 5 g ai/ha) was 38% and the “Visual Weed Control (%) Obs” value ([2]; 2.5 g ai/ha) was 50%. For the same compound, the “Visual Weed Control (%) Obs” value ([2]; 5 g ai/ha) was 58%, the “Visual Weed Control (%) Obs” value ([3]; 2.5 g ai/ha) was 48% and the “Visual Weed Control (%) Obs” value ([3]; 5 g ai/ha) was 39%. The “Visual Weed Control (%) Obs” value ([3]; 10 g ai/ha) was 60%, the “Visual Weed Control (%) Obs” value ([4]; 2.5 g ai/ha) was 20% and the “Visual Weed Control (%) Obs” value ([4]; 5 g ai/ha) was 41%. For the same compound, the “Visual Weed Control (%) Obs” value ([4]; 10 g ai/ha) was 62%, the “Visual Weed Control (%) Obs” value ([5]; 2.5 g ai/ha) was 80% and the “Visual Weed Control (%) Obs” value ([5]; 5 g ai/ha) was 86%. For the same compound, the “Visual Weed Control (%) Obs” value ([5]; 10 g ai/ha) was 94%, the “Visual Weed Control (%) Obs” value ([6]; 2.5 g ai/ha) was 48% and the “Visual Weed Control (%) Obs” value ([6]; 5 g ai/ha) was 28%. The “Visual Weed Control (%) Obs” value ([6]; 10 g ai/ha) was 35%, the “Visual Weed Control (%) Obs” value ([7]; 2.5 g ai/ha) was 70% and the “Visual Weed Control (%) Obs” value ([7]; 5 g ai/ha) was 73%. The “Visual Weed Control (%) Obs” value ([8]; 27 DAA, 16 g ae/ha) was 20%, the “Visual Weed Control (%) Obs” value ([8]; 27 DAA, 32 g ae/ha) was 40% and the “Visual Weed Control (%) Obs” value ([8]; 33 DAA, 16 g ae/ha) was 0%. For the same compound, the “Visual Weed Control (%) Obs” value ([8]; 33 DAA, 32 g ae/ha) was 5%, the “Visual Weed Control (%) - 33 DAA IPOHE Obs” value ([8]; Compound A Benzyl Ester 16 g ae/ha alone, 33 DAA) was 0% and the “Visual Weed Control (%) - 33 DAA IPOHE Obs” value ([8]; Compound A Benzyl Ester 32 g ae/ha alone, 33 DAA) was 5%.

In the case of `CSC(=O)c1c(C(F)F)nc(C(F)(F)F)c(C(=O)SC)c1CC(C)C` [Dithiopyr, S,S′-dimethyl-2-(difluoromethyl)-4-(2-methylpropyl)-6-(trifluoromethyl)-3,5-pyridinedicarbothioate], the “Visual Weed Control (%) Obs” value ([8]; 27 DAA, 140 g ai/ha) is reported as 3% and the “Visual Weed Control (%) Obs” value ([8]; 27 DAA, 280 g ai/ha) is reported as 20%.

In the case of `CCC(CC)Nc1c([N+](=O)[O-])cc(C)c(C)c1[N+](=O)[O-]` [Pendimethalin, N-(1-ethylpropyl)-3,4-dimethyl-2,6-dinitrobenzenamine, reference compound], the “Visual Weed Control (%) Obs” value ([1]; 150 g ai/ha) is reported as 3%, the “Visual Weed Control (%) Obs” value ([1]; 300 g ai/ha) is reported as 5% and the “Visual Weed Control (%) Obs” value ([2]; 150 g ai/ha) is reported as 0%. For the same compound, the “Visual Weed Control (%) Obs” value ([2]; 300 g ai/ha) was 0%, the “Visual Weed Control (%) Obs” value ([3]; 150 g ai/ha) was 10% and the “Visual Weed Control (%) Obs” value ([3]; 300 g ai/ha) was 10%. For the same compound, the “Visual Weed Control (%) Obs” value ([3]; 600 g ai/ha) was 10%, the “Visual Weed Control (%) Obs” value ([4]; 150 g ai/ha) was 10% and the “Visual Weed Control (%) Obs” value ([4]; 300 g ai/ha) was 10%. For the same compound, the “Visual Weed Control (%) Obs” value ([4]; 600 g ai/ha) was 57%, the “Visual Weed Control (%) Obs” value ([5]; 150 g ai/ha) was 0% and the “Visual Weed Control (%) Obs” value ([5]; 300 g ai/ha) was 25%. For the same compound, the “Visual Weed Control (%) Obs” value ([5]; 600 g ai/ha) was 53%, the “Visual Weed Control (%) Obs” value ([6]; 150 g ai/ha) was 18% and the “Visual Weed Control (%) Obs” value ([6]; 300 g ai/ha) was 38%. For the same compound, the “Visual Weed Control (%) Obs” value ([6]; 600 g ai/ha) was 75%, the “Visual Weed Control (%) Obs” value ([7]; 150 g ai/ha) was 3% and the “Visual Weed Control (%) Obs” value ([7]; 300 g ai/ha) was 5%.
